Measured values published in patent US8815893B2, “Hetarylaminonaphthyridines” (Merck Patent GmbH, priority 2010, dated 2014).

Biological target: T1, GST-ALK5 (Homo sapiens, UniProt P36897)
T1 sequence (P36897 34-503): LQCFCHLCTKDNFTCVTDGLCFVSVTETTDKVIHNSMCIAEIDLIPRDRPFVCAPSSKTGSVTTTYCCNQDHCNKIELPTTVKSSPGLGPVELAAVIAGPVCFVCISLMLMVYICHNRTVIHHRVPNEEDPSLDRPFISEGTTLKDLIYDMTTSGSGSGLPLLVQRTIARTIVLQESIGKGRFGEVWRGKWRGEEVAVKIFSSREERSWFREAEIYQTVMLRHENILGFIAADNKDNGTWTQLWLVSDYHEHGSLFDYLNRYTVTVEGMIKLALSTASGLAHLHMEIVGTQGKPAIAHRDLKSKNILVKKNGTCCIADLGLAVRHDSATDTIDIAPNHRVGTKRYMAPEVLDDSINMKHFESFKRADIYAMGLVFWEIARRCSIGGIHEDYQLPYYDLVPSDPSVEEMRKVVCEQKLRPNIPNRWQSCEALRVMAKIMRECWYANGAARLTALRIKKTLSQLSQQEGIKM
Test: In-vitro (enzyme) kinase assay, 384-well flashplate (example 14)
Type: biochemical
Conditions: GST-ALK5, GST-SMAD2 substrate, 33P-ATP flashplate, 30° C. 45 min; IC50 classes; read-out: TβR activity (example 14)
Method: In-Vitro (Enzyme) Assay for Determination of the Efficacy of Inhibitors of the Inhibition of TGF-Beta-Mediated Effects
The kinase assay was carried out as 384-well flashplate assay. 31.2 nM of GST-ALK5, 439 nM of GST-SMAD2 and 3 mM of ATP (with 0.3 μCi of ^33P-ATP/well) were incubated in a total volume of 35 μl (20 mM of HEPES, 10 mM of MgCl2, 5 mM of MnCl2, 1 mM of DTT, 0.1% of BSA, pH 7.4) without or with test substance (5-10 concentrations) at 30° C. for 45 min. The reaction was stopped using 25 μl of 200 mM EDTA solution, filtered with suction at room temperature after 30 min, and the wells were washed with 3 times 100 μl of 0.9% NaCl solution. Radioactivity was measured in the TopCount. The IC50 values were calculated using RS1. Above and below, all temperatures were indicated in ° C.

| IC50 [µM] | Compound |
| --- | --- |
| 0.1 to 1 | CCOc1cc(Nc2cc(-c3cc(Cl)ccc3F)nc3ncccc23)ccn1 [compound 07] |
| < 0.1 | Fc1ccccc1-c1cc(Nc2ccncc2)c2cccnc2n1 [compound 10] |
| < 0.1 | Fc1ccc(Cl)cc1-c1cc(-n2ccc3cnccc32)c2cccnc2n1 [compound 14] |
| < 0.1 | Fc1ccc(C(F)(F)F)cc1-c1cc(Nc2ccncc2)c2cccnc2n1 [compound 16] |
| < 0.1 | Fc1ccc(Cl)cc1-c1cc(Nc2ncncn2)c2cccnc2n1 [compound 18] |
| < 0.1 | CN(C)CCOc1cnccc1Nc1cc(-c2cc(Cl)ccc2F)nc2ncccc12 [compound 23] |
| < 0.1 | COCCOc1cnccc1Nc1cc(-c2cc(C(F)(F)F)ccc2F)nc2ncccc12 [compound 26] |
| < 0.1 | O=c1[nH]c2cnccc2n1-c1cc(-c2cc(Cl)ccc2F)nc2ncccc12 [compound 29] |
| < 0.1 | OCc1cnccc1Nc1cc(-c2cc(C(F)(F)F)ccc2F)nc2ncccc12 [compound 37] |
| < 0.1 | CNC(=O)c1cnccc1Nc1cc(-c2cc(Cl)ccc2F)nc2ncccc12 [compound 42] |
| < 0.1 | Fc1cc(F)c(-c2cc(Nc3ccncc3)c3cccnc3n2)cc1F [compound 43] |
| < 0.1 | CN1CCC(COc2cnccc2Nc2cc(-c3cc(Cl)ccc3F)nc3ncccc23)CC1 [compound 47] |
| < 0.1 | Fc1cc(F)c(-c2cc(Nc3ccncn3)c3cccnc3n2)cc1F [compound 50] |
| < 0.1 | Fc1ccc(Cl)cc1-c1cc(-n2ccc3cncnc32)c2cccnc2n1 [compound 54] |
| < 0.1 | Cc1cccc(-c2cc(Nc3cc(N)ncn3)c3cccnc3n2)n1 [compound 55] |
| < 0.1 | Fc1ccc(Cl)cc1-c1cc(Nc2ccnc(Cl)c2)c2cccnc2n1 [compound 62] |
| < 0.1 | N#Cc1cnccc1Nc1cc(-c2cc(Cl)ccc2F)nc2ncccc12 [compound 65] |
| < 0.1 | CC(=O)Nc1cc(Nc2cc(-c3cc(Cl)ccc3F)nc3ncccc23)ccn1 [compound 67] |
| < 0.1 | CC(C)C(=O)Nc1cc(Nc2cc(-c3cc(Cl)ccc3F)nc3ncccc23)ccn1 [compound 70] |
| < 0.1 | Cc1nn(-c2cc(-c3cc(Cl)ccc3F)nc3ncccc23)c2ccncc12 [compound 71] |
| < 0.1 | CN(C)CCNC(=O)c1cnccc1Nc1cc(-c2cc(Cl)ccc2F)nc2ncccc12 [compound 72] |

The remaining lines, values behind:

| Compound | IC50 [µM] |
| --- | --- |
| Fc1ccc(Cl)cc1-c1cc(Nc2ccncc2)c2cccnc2n1 [compound 01] | < 0.1 |
| Nc1cc(Nc2cc(-c3cc(Cl)ccc3F)nc3ncccc23)ncn1 [compound 02] | < 0.1 |
| Cc1cccc(-c2cc(Nc3ccncc3)c3cccnc3n2)n1 [compound 03] | < 0.1 |
| Fc1ccc(Cl)cc1-c1cc(Nc2ccncc2OCCN2CCOCC2)c2cccnc2n1 [compound 04] | 0.1 to 1 |
| Fc1ccc(Cl)cc1-c1cc(Nc2ccncn2)c2cccnc2n1 [compound 05] | < 0.1 |
| Fc1ccc(-c2cc(Nc3ccncc3)c3cccnc3n2)cc1 [compound 06] | < 0.1 |
| CN1CCN(c2cc(Nc3cc(-c4cc(Cl)ccc4F)nc4ncccc34)ccn2)CC1 [compound 08] | 1 to 10 |
| OCCOc1cnccc1Nc1cc(-c2cc(Cl)ccc2F)nc2ncccc12 [compound 09] | < 0.1 |
| Clc1cccc(-c2cc(Nc3ccncc3)c3cccnc3n2)c1 [compound 11] | < 0.1 |
| FC(F)(F)c1cccc(-c2cc(Nc3ccncc3)c3cccnc3n2)c1 [compound 12] | < 0.1 |
| Fc1ccc(F)c(-c2cc(Nc3ccncc3)c3cccnc3n2)c1 [compound 13] | < 0.1 |
| COCCOc1cnccc1Nc1cc(-c2cc(Cl)ccc2F)nc2ncccc12 [compound 15] | < 0.1 |
| Fc1ccccc1-c1cc(Nc2ccncn2)c2cccnc2n1 [compound 17] | < 0.1 |
| Cn1cc(-c2cc(Nc3ccncc3)c3cccnc3n2)cn1 [compound 19] | 1 to 10 |
| OCc1cnccc1Nc1cc(-c2cc(Cl)ccc2F)nc2ncccc12 [compound 20] | < 0.1 |
| Fc1ccc(C(F)(F)F)cc1-c1cc(Nc2ccncn2)c2cccnc2n1 [compound 21] | < 0.1 |
| Nc1cnccc1Nc1cc(-c2cc(Cl)ccc2F)nc2ncccc12 [compound 22] | < 0.1 |
| c1cnc2nc(-c3cnccn3)cc(Nc3ccncc3)c2c1 [compound 24] | 1 to 10 |
| c1ccc(-c2cc(Nc3ccncc3)c3cccnc3n2)nc1 [compound 25] | < 0.1 |
| CN1CCN(c2ccc(Nc3cc(Nc4cc(-c5cc(Cl)ccc5F)nc5ncccc45)ccn3)cc2)CC1 [compound 27] | 0.1 to 1 |
| Cc1ccn(-c2cc(Nc3ccncc3)c3cccnc3n2)n1 [compound 28] | < 0.1 |
| Fc1ccc(C(F)(F)F)cc1-c1cc(-n2ccc3cnccc32)c2cccnc2n1 [compound 30] | < 0.1 |
| c1cnc2nc(-c3cn[nH]c3)cc(Nc3ccncc3)c2c1 [compound 31] | 0.1 to 1 |
| Nc1cc(Nc2cc(-c3cc(C(F)(F)F)ccc3F)nc3ncccc23)ncn1 [compound 32] | < 0.1 |
| CN(C)CCCOc1cnccc1Nc1cc(-c2cc(Cl)ccc2F)nc2ncccc12 [compound 33] | < 0.1 |

| Compound | IC50 [µM] |
| --- | --- |
| Fc1ccc(Cl)cc1-c1cc(Nc2ccncc2OCCCN2CCOCC2)c2cccnc2n1 [compound 34] | < 0.1 |
| Cn1ccc(-c2cc(Nc3ccncc3)c3cccnc3n2)n1 [compound 35] | 0.1 to 1 |
| Cn1nccc1-c1cc(Nc2ccncc2)c2cccnc2n1 [compound 36] | 1 to 10 |
| Fc1ccc(OC(F)(F)F)cc1-c1cc(Nc2ccncc2)c2cccnc2n1 [compound 38] | < 0.1 |
| Fc1ccc(Cl)cc1-c1cc(Nc2ccnc(Nc3cc(-c4cc(Cl)ccc4F)nc4ncccc34)n2)c2cccnc2n1 [compound 39] | 1 to 10 |
| COC(=O)c1cnccc1Nc1cc(-c2cc(Cl)ccc2F)nc2ncccc12 [compound 40] | < 0.1 |
| N#Cc1cncnc1Nc1cc(-c2cc(Cl)ccc2F)nc2ncccc12 [compound 41] | < 0.1 |
| Fc1ccc(C(F)(F)F)cc1-c1cc(Nc2ncncn2)c2cccnc2n1 [compound 44] | < 0.1 |
| CCN(CCOc1cnccc1Nc1cc(-c2cc(Cl)ccc2F)nc2ncccc12)C(=O)OC(C)(C)C [compound 45] | 0.1 to 1 |
| CCNCCOc1cnccc1Nc1cc(-c2cc(Cl)ccc2F)nc2ncccc12 [compound 46] | 0.1 to 1 |
| COC(=O)c1cc(Nc2cc(-c3cc(Cl)ccc3F)nc3ncccc23)ccn1 [compound 48] | < 0.1 |
| Cc1cccc(-c2cc(Nc3ccncn3)c3cccnc3n2)n1 [compound 49] | < 0.1 |
| CC(C)(C)OC(=O)Nc1nccc(Nc2cc(-c3cc(Cl)ccc3F)nc3ncccc23)n1 [compound 51] | < 0.1 |
| Nc1nccc(Nc2cc(-c3cc(Cl)ccc3F)nc3ncccc23)n1 [compound 52] | < 0.1 |
| CNC(=O)c1cc(Nc2cc(-c3cc(Cl)ccc3F)nc3ncccc23)ccn1 [compound 53] | < 0.1 |
| Fc1ccc(Cl)cc1-c1cc(Oc2ccncc2)c2cccnc2n1 [compound 56] | > 10 |
| Cc1cccc(-c2cc(-n3ccc4cnccc43)c3cccnc3n2)n1 [compound 57] | < 0.1 |
| Fc1ccc(Cl)cc1-c1cc(Sc2ccncc2)c2cccnc2n1 [compound 58] | < 0.1 |
| Cc1cccc(-c2cc(-n3ccc4cncnc43)c3cccnc3n2)n1 [compound 59] | 0.1 to 1 |
| CCNC(=O)c1cnccc1Nc1cc(-c2cccc(C)n2)nc2ncccc12 [compound 60] | < 0.1 |
| N#Cc1ccccc1-c1cc(Nc2ccncc2)c2cccnc2n1 [compound 61] | 0.1 to 1 |
| O=C(O)c1cnccc1Nc1cc(-c2cc(Cl)ccc2F)nc2ncccc12 [compound 63] | < 0.1 |
| O=C(O)c1cc(Nc2cc(-c3cc(Cl)ccc3F)nc3ncccc23)ccn1 [compound 68] | 1 to 10 |
| Fc1ccc(Cl)cc1-c1cc(-n2ncc3cnccc32)c2cccnc2n1 [compound 73] | < 0.1 |
| CS(=O)(=O)Nc1cc(Nc2cc(-c3cc(Cl)ccc3F)nc3ncccc23)ccn1 [compound 74] | 0.1 to 1 |

Tested on: lung epithelial cell line Mv1Lu
Test: Cellular assay for TGF-beta receptor I kinase inhibitors: elimination of TGF-beta-mediated growth inhibition (example 13)
Type: cell-based
Conditions: 48 h; Mv1Lu cells, 1 ng/ml TGF-beta, 0.5% FCS, two days, Crystal Violet staining; read-out: TβR activity (example 13)
Method: Cellular Assay for Testing TGF-Beta Receptor I Kinase Inhibitors
As an example, the ability of the inhibitors to eliminate TGF-beta-mediated growth inhibition was tested. Cells of the lung epithelial cell line Mv1Lu were sown in a defined cell density in a 96-well microtiter plate and cultivated overnight under standard conditions. Next day, the medium was replaced by medium which comprises 0.5% of FCS and 1 ng/ml of TGF-beta, and the test substances were added in defined concentrations, generally in the form of dilution series with 5 fold steps. The concentration of the solvent DMSO was constant at 0.5%. After a further two days, Crystal Violet staining of the cells was carried out. After extraction of the Crystal Violet from the fixed cells, the absorption was measured spectrophotometrically at 550 nm. It could be used as a quantitative measure of the adherent cells present and thus of the cell proliferation during the culture.

| Compound | IC50 [µM] |
| --- | --- |
| CN(C)CCNC(=O)c1cnccc1Nc1cc(-c2cc(Cl)ccc2F)nc2ncccc12 [compound 72] | < 0.1 |
| Fc1ccc(Cl)cc1-c1cc(-n2ncc3cnccc32)c2cccnc2n1 [compound 73] | < 0.1 |
| CS(=O)(=O)Nc1cc(Nc2cc(-c3cc(Cl)ccc3F)nc3ncccc23)ccn1 [compound 74] | 1 to 10 |
